Measured values as given in ChEMBL document CHEMBL1201862, “PubChem BioAssay data set” (2004).
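1) Cells in 96-well plates. 2) Compound, 48 h, 5 concentrations. 3) Linear interpolation between surrounding doses. 4) Unreached endpoint = highest concentration. Abbreviation: GI50, concentration required for 50% inhibition of growth.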 Active and inactive are the calls of the source. No stated cut-off is given here; in the data, active = GI50 up to about 1.1 µM and inactive = higher.

Experiments:
Experiment in all cases: NCI-60 cell line screen, 48 h
[1] = test system: A549
[2] = test system: SK-MEL-2
[3] = test system: UACC-62
[4] = test system: EKVX
[5] = test system: COLO 205
[6] = test system: SF-268
[7] = test system: HCT-15
[8] = test system: NCI-H226
[9] = test system: U-251
[10] = test system: K562
[11] = test system: Malme-3M
[12] = test system: LOX IMVI
[13] = test system: HCC 2998
[14] = test system: M19-MEL
[15] = test system: SNB-19
[16] = test system: OVCAR-4
[17] = test system: OVCAR-5
[18] = test system: HOP-92
[19] = test system: HCT-116
[20] = test system: ACHN

Row | SMILES | GI50 [1] | GI50 [2] | GI50 [3] | GI50 [4] | GI50 [5] | GI50 [6] | GI50 [7] [µM] | GI50 [8] | GI50 [9] | GI50 [10] | GI50 [11] | GI50 [12] | GI50 [13] | GI50 [14] | GI50 [15] | GI50 [16] | GI50 [17] | GI50 [18] | GI50 [19] | GI50 [20]
1 | CCOCC(=O)N(C)c1cccc2c3c(n(C)c12)CCCCC3 | > 100 µM (inactive) | > 100 µM (inactive) | > 100 µM (inactive) | > 100 µM (inactive) | > 100 µM (inactive) | > 100 µM (inactive) | > 100 | > 100 µM (inactive) | > 100 µM (inactive) | > 62.4 µM (inactive) | > 100 µM (inactive) | > 100 µM (inactive) | > 100 µM (inactive) | > 100 µM (inactive) | > 23.8 µM (inactive) | > 100 µM (inactive) | > 100 µM (inactive) | > 94.8 µM (inactive) | > 100 µM (inactive) | 
2 | Cc1cc(OCC(O)CO)ccc1Cl (stereo not drawn) | > 100 µM (inactive) | > 100 µM (inactive) | > 100 µM (inactive) | > 100 µM (inactive) | > 100 µM (inactive) | > 100 µM (inactive) | > 100 | > 100 µM (inactive) | > 100 µM (inactive) | > 100 µM (inactive) | > 100 µM (inactive) | > 100 µM (inactive) | > 100 µM (inactive) | > 100 µM (inactive) | > 100 µM (inactive) | > 100 µM (inactive) | > 100 µM (inactive) | > 100 µM (inactive) | > 100 µM (inactive) | > 100 µM (inactive)
3 | COc1ccc(-c2cc(O)c3cc(C)cnc3n2)cc1 | 8.65 µM (inactive) | 3.5 µM (inactive) | 4.29 µM (inactive) | 37 µM (inactive) | 3.22 µM (inactive) | 6.81 µM (inactive) | 3.23 | 13 µM (inactive) |  | 2.29 µM (inactive) | 4.67 µM (inactive) | 6.5 µM (inactive) | 14.5 µM (inactive) |  | > 100 µM (inactive) | 33.9 µM (inactive) | 93.8 µM (inactive) | 13.8 µM (inactive) |  | 7.06 µM (inactive)
4 | N#CCCN(CCC#N)c1ccc(/C=C2\N=C(c3cc([N+](=O)[O-])ccc3Cl)N(NC(=O)CC(=O)Nc3ccccc3Cl)C2=O)cc1 | > 100 µM (inactive) | > 100 µM (inactive) | > 100 µM (inactive) | > 100 µM (inactive) | > 100 µM (inactive) | > 100 µM (inactive) | > 100 | 16.1 µM (inactive) | > 100 µM (inactive) | > 100 µM (inactive) | > 100 µM (inactive) | > 100 µM (inactive) | > 100 µM (inactive) | > 100 µM (inactive) | > 100 µM (inactive) | > 100 µM (inactive) | 26.5 µM (inactive) | > 100 µM (inactive) | > 100 µM (inactive) | > 100 µM (inactive)
5 | CC/C(CC(=O)CCC(=O)Nc1ccc(C)c(C)c1)=N\NC(=O)c1cc2ccccc2cc1O |  | 31 µM (inactive) | 14.6 µM (inactive) | 27.5 µM (inactive) | 37 µM (inactive) | 22.1 µM (inactive) | 13.9 | 13.4 µM (inactive) | 28.8 µM (inactive) | 21.8 µM (inactive) | 24.8 µM (inactive) | 16.1 µM (inactive) | 18.4 µM (inactive) | 28.8 µM (inactive) | 39.1 µM (inactive) | 18.4 µM (inactive) | 31 µM (inactive) | 31.2 µM (inactive) | 37.6 µM (inactive) | 24.9 µM (inactive)
6 | COC(=N)C(C)C | > 100 µM (inactive) |  | > 100 µM (inactive) |  | > 100 µM (inactive) | > 100 µM (inactive) | > 100 | > 100 µM (inactive) | > 100 µM (inactive) | > 100 µM (inactive) | > 100 µM (inactive) | > 100 µM (inactive) | > 100 µM (inactive) | > 100 µM (inactive) | > 100 µM (inactive) | > 100 µM (inactive) | > 100 µM (inactive) | > 100 µM (inactive) | > 100 µM (inactive) | > 100 µM (inactive)
7 | C=CCN1C(=O)/C(=C/c2ccccc2)N=C1SC1OC(COC(=O)c2ccccc2)C(OC(=O)c2ccccc2)C1OC(=O)c1ccccc1 (stereo not drawn) |  | > 100 µM (inactive) | 31.3 µM (inactive) | > 100 µM (inactive) | > 100 µM (inactive) |  | > 100 | > 100 µM (inactive) | > 100 µM (inactive) | 46.2 µM (inactive) | > 100 µM (inactive) | 78.3 µM (inactive) | > 100 µM (inactive) |  |  | > 100 µM (inactive) | 44.3 µM (inactive) | 60.5 µM (inactive) |  | 30.3 µM (inactive)
8 | COc1ccc(NC(=O)/C(=C/c2ccc(N(CCC#N)CCC#N)cc2)NC(=O)c2cc([N+](=O)[O-])ccc2Cl)cc1 | 15.5 µM (inactive) | 56.1 µM (inactive) | 13.3 µM (inactive) | 52.1 µM (inactive) | 59.8 µM (inactive) | 27.2 µM (inactive) | 4.62 | > 100 µM (inactive) | > 100 µM (inactive) | 6.76 µM (inactive) | > 100 µM (inactive) | 18.4 µM (inactive) | 45.8 µM (inactive) | 56.4 µM (inactive) | > 100 µM (inactive) | > 100 µM (inactive) | > 100 µM (inactive) | > 100 µM (inactive) | 48.2 µM (inactive) | 10.1 µM (inactive)
